From patent publication US20110097365A1, “S-TRIAZINE DERIVATIVES CONTAINING AT LEAST TWO PARTICULAR SILANE AMINOBENZOATE OR SILANE AMINOBENZAMIDE GROUPS; PHOTOPROTECTIVE COSMETIC COMPOSITIONS CONTAINING THESE DERIVATIVES; USES OF THE SAID S-TRIAZINE DERIVATIVES” (L'OREAL, priority 2007, published 2011)
“And” between values parts separate entries of the source, which are not always exact repeats. Identical values can stand only once.

Key:
Assay type in all cases: physicochemical
[1] = UV absorption of the derivatives in DMSO/ethanol; settings: for E1% / εmax: at the λmax of the same block
[2] = Granulometric measurements by SLS (Mastersizer)
Experimental: (§1) Two micronizations of these compounds 1 and 2 are performed by milling in oily medium (oil: phenylethyl benzoate—X-Tend 226 from ISP) by means of a mill without addition of dispersant, using a Dispermat ball mill.
(§2) • Dispermat AE 06-C1 disperser-mill (Brant Industrie) • Dispersion: slurries containing 17% R056336A and 49% F17845 (difference in oil uptake) ˜3000 rpm ˜15 minutes • Milling under rapid conditions (30 minutes at 4500 rpm), not optimized (water-cooling circuit not operational) with 0.7-1.2 mm […] balls.
The granulometric results obtained by SLS using a Mastersizer granulometer reveal a very marked difference in particle size between compound 1 and compound 2, with particle sizes d(0.5), respectively, of 0.118 μm as opposed to 851 μm.

[3] = Macroscopic observation of 1% oily dispersions in phenylethyl benzoate; settings: 1% by weight in phenylethyl benzoate (X-Tend 226), after about one week
Experimental: as §1, §2
Two oily dispersions in phenylethyl benzoate (X-Tend 226) comprising 1% by weight, respectively, of compound 1A or 2A are then prepared.

macroscopic stability of dispersion [3] | SMILES | λmax [1] | E1% [1] | εmax [1] | particle size d(0.5) ([2]; after milling in phenylethyl benzoate without dispersant, SLS Mastersizer) [μm] | dispersibility in the oil phenylethyl benzoate ([2]; overall conclusion, compared with compound 2)
 | C[Si](C)(C)COC(=O)c1ccc(Nc2nc(Nc3ccc(C(=O)OC[Si](C)(C)C)c(O)c3)nc(Nc3ccc(C(=O)OC[Si](C)(C)C)c(O)c3)n2)cc1O [Example 3, 2,4,6-tris(methyltrimethyl-silyl 4′-aminosalicylate)-s-triazine] | 326 nm and 300 nm | 1456 and 938 | 107 610 and 74 400 |  | 
 | C[Si](C)(C)COC(=O)c1ccc(Nc2nc(Nc3ccc(C(=O)OC[Si](C)(C)C)cc3)nc(Nc3ccc(C(=O)OC[Si](C)(C)C)cc3)n2)cc1 [Example 1, 2,4,6-tris(methyltrimethyl-silyl 4′-aminobenzoate)-s-triazine] | 314 nm | 1700 | 126 660 | 0.118 | markedly superior dispersibility
totally insoluble | CC(C)(C)CC(C)(C)c1cc(Cc2cc(C(C)(C)CC(C)(C)C)cc(-n3nc4ccccc4n3)c2O)c(O)c(-n2nc3ccccc3n2)c1 [Compound 2, methylenebis(benzo-triazolyl)tetramethylbutylphenol] |  |  |  |  | 
 | COc1ccc(-c2nc(Nc3ccc(C(=O)OC[Si](C)(C)C)c(O)c3)nc(Nc3ccc(C(=O)OC[Si](C)(C)C)c(O)c3)n2)cc1 [Example 5, 2,4-bis(methyltrimethylsilyl 4′-aminosalicylate)-6-(para-methoxyphenyl)-s-triazine] | 329 nm and 316 nm and 298 nm | 927 and 1066 and 1030 | 61 370 and 70 570 and 68 190 |  | 
 | COc1ccc(-c2nc(Nc3ccc(C(=O)OC[Si](C)(C)C)cc3)nc(Nc3ccc(C(=O)OC[Si](C)(C)C)cc3)n2)cc1 [Example 4, 2,4-bis(methyltrimethylsilyl 4′-aminobenzoate)-6-(para-methoxyphenyl)-s-triazine] | 303 nm | 1313 | 82 700 |  | 
 | CC12CCC(/C(=C\c3ccc(Nc4nc(Nc5ccc(C(=O)OC[Si](C)(C)C)cc5)nc(Nc5ccc(C(=O)OC[Si](C)(C)C)cc5)n4)cc3)C1=O)C2(C)C (stereo not shown) [Example 6, 2,4-bis(methyltrimethylsilyl 4′-aminobenzoate)-6-(4″-aminobenzylidenecamphor)-s-triazine] | 313 nm and 345 nm |  |  |  | 
 | C[Si](C)(C)CNC(=O)c1ccc(Nc2nc(Nc3ccc(C(=O)NC[Si](C)(C)C)cc3)nc(Nc3ccc(C(=O)NC[Si](C)(C)C)cc3)n2)cc1 [Example 7, 2,4,6-tris(methyltrimethyl-silyl 4′-aminobenzamide)-s-triazine] | 303 nm | 1123 | 83 330 |  | 
 | CCCCOC(=O)c1ccc(Nc2nc(Nc3ccc(C(=O)OC[Si](C)(C)C)cc3)nc(Nc3ccc(C(=O)OC[Si](C)(C)C)cc3)n2)cc1 [Example 2, 2,4-bis(methyltrimethylsilyl 4′-aminobenzoate)-6-(butyl 4″-aminobenzoate)-s-triazine] | 313 nm | 1660 | 104 560 |  | 
